Laboratory results published in US20250074871A1, “PHENETHYLAMINES AND METHODS OF PREPARATION THEREOF” (priority 2022, published 2025).
Where “and” joins values, the source holds several entries; their conditions need not be identical. Identical values can stand only once. Like-named read-outs stand apart in the source and are kept apart here.

What was measured:
[1] = target: T1, 5-HT2A receptor (Homo sapiens, UniProt P28223); experiment: 5-HT2A Gq dissociation BRET functional assay; type: cell-based; details: for 5-HT2A BRET Eff %: normalized to % 5-HT stimulation
T1 construct: expressed in transfected cells; host or cells: HEK293T
T1 sequence (P28223 whole entry): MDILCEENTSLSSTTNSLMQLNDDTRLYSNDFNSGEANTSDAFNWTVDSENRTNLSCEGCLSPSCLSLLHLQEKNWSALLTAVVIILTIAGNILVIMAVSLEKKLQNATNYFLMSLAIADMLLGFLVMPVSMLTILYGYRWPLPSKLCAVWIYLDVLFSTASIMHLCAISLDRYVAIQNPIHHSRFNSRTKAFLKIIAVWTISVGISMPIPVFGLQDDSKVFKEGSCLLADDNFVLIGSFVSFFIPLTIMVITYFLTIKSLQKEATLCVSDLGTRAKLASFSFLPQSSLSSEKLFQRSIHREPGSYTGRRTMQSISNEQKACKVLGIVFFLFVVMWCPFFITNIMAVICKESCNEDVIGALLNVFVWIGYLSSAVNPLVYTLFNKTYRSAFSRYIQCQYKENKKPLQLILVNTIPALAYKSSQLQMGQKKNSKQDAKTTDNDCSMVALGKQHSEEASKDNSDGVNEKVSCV

[2] = target: T2, 5-HT2B receptor (Homo sapiens, UniProt P41595); experiment: 5-HT2B Gq dissociation BRET functional assay; type: cell-based; details: for 5-HT2B BRET Eff %: normalized to % 5-HT stimulation
T2 construct: expressed in transfected cells; host or cells: HEK293T
T2 sequence (P41595 whole entry): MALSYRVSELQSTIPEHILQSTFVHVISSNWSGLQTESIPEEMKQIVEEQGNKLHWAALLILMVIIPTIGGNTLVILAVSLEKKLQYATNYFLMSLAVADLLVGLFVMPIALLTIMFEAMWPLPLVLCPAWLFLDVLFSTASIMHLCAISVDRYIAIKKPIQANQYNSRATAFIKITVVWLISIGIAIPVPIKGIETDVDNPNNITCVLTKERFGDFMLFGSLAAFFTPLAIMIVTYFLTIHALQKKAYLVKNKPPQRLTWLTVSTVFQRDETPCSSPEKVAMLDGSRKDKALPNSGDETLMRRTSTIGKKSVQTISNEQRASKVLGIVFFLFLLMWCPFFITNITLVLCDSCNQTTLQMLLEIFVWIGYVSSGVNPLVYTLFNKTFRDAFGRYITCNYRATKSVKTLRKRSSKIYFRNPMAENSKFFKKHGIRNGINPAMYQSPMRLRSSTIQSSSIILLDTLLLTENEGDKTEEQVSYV

[3] = test system: hepatocyte; experiment: in vitro hepatocyte clearance, rat; type: in vitro ADME; details: Rat
Method: (§1) Additional experimentation was performed on compound 109. Table 6 summarizes, among other things, the anticipated hepatic clearance of compound 109 in various species, as specified in Table 6 and as determined by calculating the in vitro hepatocyte clearance over time and scaling such rate with such species' hepatocyte count and the anticipated liver blood flow rate in such species.

[4] = in vitro hepatocyte clearance, rat; type: in vitro ADME; details: for hepatocyte CLint / half-life: Rat hepatocytes; for hepatocyte CLint: read-out: In vitro Clint (μL/min/10^6 cells); for half-life: read-out: In vitro T1/2; for CLint scaled: rat, hepatocytes, read-out: Scale-up Clint
Method: as §1

[5] = plasma and brain PK predicted in humans; details: Human (predicted); for Kp: brain; for clearance: read-out: Cltot (converted); for half-life: read-out: T1/2 Vz (converted); for Vd: read-out: Vz
Source text: Table 7a and Table 7b summarize, among other things, the observed plasma and Brain P K properties in animals, and the observed plasma and Brain P K properties predicted in humans, for compound 109 in Table 7a and compound 93 for Table 7b: […]

[6] = test system: hepatocyte; experiment: in vitro hepatocyte clearance, monkey; type: in vitro ADME; details: Monkey
Method: as §1

[7] = in vitro hepatocyte clearance, monkey; type: in vitro ADME; details: Monkey hepatocytes; for hepatocyte CLint: read-out: In vitro Clint (μL/min/10^6 cells); for half-life: read-out: In vitro T1/2; for CLint scaled: read-out: Scale-up Clint
Method: as §1

[8] = target: 5-HT1D (Homo sapiens, UniProt P28221); experiment: 5-HT receptor activity panel (Table 3); type: cell-based; details: Table 3
Sequence of 5-HT1D (P28221 whole entry, species assumed): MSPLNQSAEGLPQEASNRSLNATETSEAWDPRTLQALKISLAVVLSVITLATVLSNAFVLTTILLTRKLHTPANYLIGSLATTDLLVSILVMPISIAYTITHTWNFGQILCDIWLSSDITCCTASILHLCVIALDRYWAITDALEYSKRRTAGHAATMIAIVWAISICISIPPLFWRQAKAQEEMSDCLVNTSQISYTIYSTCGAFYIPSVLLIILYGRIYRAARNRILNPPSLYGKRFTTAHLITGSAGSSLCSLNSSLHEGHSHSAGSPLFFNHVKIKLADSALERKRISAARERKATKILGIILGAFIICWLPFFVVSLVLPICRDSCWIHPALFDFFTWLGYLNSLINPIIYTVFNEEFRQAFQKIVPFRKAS

[9] = test system: α 1a, α 2a, Kappa (KOP), μ (MOP), 5-HT transporter (SERT); experiment: follow up functional assays on SafetyScreen44 hits
Method: Various compounds disclosed herein were subjected to an in vitro SafetyScreen44™ panel for identifying off-target activity. Compounds of interest that are identified in the panel are then tested in follow up functional assays to identify if such compounds have a significant off-target risk. […] It is predicted that other compounds share similar characteristics with compound 109 and also lack of the off-target activity.

[10] = test system: healthy rat subjects; experiment: locomotor activity test in healthy rats; type: in vivo; details: intraperitoneal dose of up to 30 mg/kg
Method: (§2) Additional experimentation was also done on compound 109. Namely, an intraperitoneal dose of up to 30 mg/kg of compound 109 and various reference compounds were delivered into healthy rat subjects and surgery induced abnormal rat subjects (olfactory bulbectomized rats). […] Without being bound by theory, it is believed that these observations are a result of long lasting neuroplasticity effects of compound 109 on surgery induced abnormal rat subjects. FIG. 5 summarizes the results of this experiment. Using psilocybin as a comparative psychedelic, the results of this experiment support the notion that compound 109 provides sustainable acute antidepressant effects. Note that “VEH” refers to vehicle, and “PSIL” refers to psilocybin, in FIG. 5.

[11] = test system: hepatocyte; experiment: in vitro hepatocyte clearance, human; type: in vitro ADME; details: Human
Method: as §1

[12] = in vitro hepatocyte clearance, human; type: in vitro ADME; details: Human hepatocytes; for hepatocyte CLint: read-out: In vitro Clint (μL/min/10^6 cells); for half-life: read-out: In vitro T1/2; for CLint scaled: read-out: Scale-up Clint
Method: as §1

[13] = test system: olfactory bulbectomized rats; experiment: locomotor/behavioral activity in olfactory bulbectomized rats; type: in vivo, rat; details: single intraperitoneal dose, FIG. 5
Method: as §2

[14] = target: T3, 5-HT1F (Homo sapiens, UniProt P30939); experiment: 5-HT receptor activity panel (Table 3); type: cell-based
T3 sequence (P30939 1-366): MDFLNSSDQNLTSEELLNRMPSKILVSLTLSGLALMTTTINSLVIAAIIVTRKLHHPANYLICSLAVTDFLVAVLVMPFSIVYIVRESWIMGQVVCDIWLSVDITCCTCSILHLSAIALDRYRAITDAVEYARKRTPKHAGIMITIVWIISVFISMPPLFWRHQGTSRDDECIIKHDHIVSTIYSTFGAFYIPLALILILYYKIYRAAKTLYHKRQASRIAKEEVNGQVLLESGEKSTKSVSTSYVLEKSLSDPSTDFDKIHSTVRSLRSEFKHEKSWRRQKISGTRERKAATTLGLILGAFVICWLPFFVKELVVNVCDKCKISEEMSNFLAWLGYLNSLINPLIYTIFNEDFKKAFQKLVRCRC

[15] = target: 5-HT4 (Homo sapiens, UniProt Q13639); experiment: 5-HT receptor activity panel (Table 3); type: cell-based; details: Table 3
Sequence of 5-HT4 (Q13639 whole entry, species assumed): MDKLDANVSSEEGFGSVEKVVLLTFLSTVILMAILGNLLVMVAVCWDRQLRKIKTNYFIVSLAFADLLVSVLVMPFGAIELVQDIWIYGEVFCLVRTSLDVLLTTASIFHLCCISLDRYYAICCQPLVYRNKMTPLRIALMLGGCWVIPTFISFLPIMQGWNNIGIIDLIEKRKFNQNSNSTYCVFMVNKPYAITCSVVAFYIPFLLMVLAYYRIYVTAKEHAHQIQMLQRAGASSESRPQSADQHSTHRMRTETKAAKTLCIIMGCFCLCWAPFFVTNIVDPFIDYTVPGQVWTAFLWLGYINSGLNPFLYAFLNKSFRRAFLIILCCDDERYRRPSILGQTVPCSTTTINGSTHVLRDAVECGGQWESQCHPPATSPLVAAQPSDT

In the case of CSc1ccccc1CNCCc1ccc(C#N)cc1O [Cpd #109], the EC50 ([1]; Table 2, at least three replicate trials, read-out: 5-HT2A BRET EC50) is reported as 5.1 nM, the “5-HT2A BRET Eff %” value ([1]; Table 2) is reported as 102% and the “5-HT2A Eff, %” value ([1]; Table 3 panel) is reported as 99%. The EC50 ([1]; Table 3 panel, read-out: 5-HT2A EC50) was 4.8 nM, the EC50 ([1]; Table 4, unit inferred, read-out: EC50 BRET 2A) was 4.8 nM and the EC50 ([2]; Table 2, at least three replicate trials, read-out: 5-HT2B BRET EC50) was 3140 nM. The “5-HT2B BRET Eff %” value ([2]; Table 2) was 95%, the “5-HT2B Eff, %” value ([2]; Table 3 panel) was 84% and the EC50 ([2]; Table 3 panel, read-out: 5-HT2B EC50) was 3090 nM. For the same compound, the “Hepatic Extraction Ratio (E)” value [3] was 0.95, the “Predicted hepatic CL” value [3] was 52.55 mL/min/kg and the hepatocyte CLint [4] was 234 µL/min/1e6 cells. The half-life [4] was 5.93 min, the CLint scaled [4] was 1090 mL/min/kg and the Kp ([5]; read-out: Brain Plasma AUC Ratio) was 2.14. It also gave a bioavailability ([5]; plasma, IM, read-out: IM f (%)) of 100%, a clearance ([5]; plasma) of 16.2 mL/min/kg and a half-life ([5]; plasma) of 120 min. The Vd ([5]; plasma) was 2.78 L/kg, the “Hepatic Extraction Ratio (E)” value [6] was 0.98 and the “Predicted hepatic CL” value [6] was 42.57 mL/min/kg. It also gave a hepatocyte CLint [7] of 499 µL/min/1e6 cells, a half-life [7] of 2.78 min and a CLint scaled [7] of 1800 mL/min/kg. For the same compound, the “5-HT1D Eff, %” value [8] was 6%, the EC50 ([8]; read-out: 5-HT1D EC50) was 379 nM and the “Follow up studies (off-target activity)” value [9] was “No significant”. For the same compound, the “Follow up studies (off-target activity)” value ([9]; listed as compound 109) was “does not possess significant off-target activity”, the “effect on normal locomotor activity” value [10] was “no suggestion that an intraperitoneal dose of up to 30 mg/kg of such compound affects the normal locomotor activity” and the “Hepatic Extraction Ratio (E)” value [11] was 0.99. The “Predicted hepatic CL” value [11] was 20.43 mL/min/kg, the hepatocyte CLint [12] was 609 µL/min/1e6 cells and the half-life [12] was 2.28 min. For the same compound, the CLint scaled [12] was 1550 mL/min/kg, the “inhibition of abnormal behavioral activity” value [13] was “significant and long lasting inhibition of abnormal behavioral activity” and the “5-HT1F Eff, %” value ([14]; Table 3) was 12%. For the same compound, the EC50 ([14]; Table 3, read-out: 5-HT1F EC50) was 582 nM, the “5-HT4 Eff, %” value [15] was −3% and the EC50 ([15]; read-out: 5-HT4 EC50) was 0.2 nM.

In the case of COc1cc(C(F)(F)F)ccc1CCNCc1ccccc1O [Cpd #93], the EC50 ([1]; 5-HT2A BRET EC50 (nM), Table 2, at least three replicate trials) is reported as 0.7 nM and 1.17 nM, the EC50 ([1]; 5-HT2A EC50, nM, Table 3 panel) is reported as 0.3 nM and the EC50 ([1]; EC50 BRET 2A, Table 4, unit inferred) is reported as 1.2 nM. The “5-HT2A BRET Eff %” value ([1]; Table 2) was 96% and 91%, the “5-HT2A Eff, %” value ([1]; Table 3 panel) was 96% and the EC50 ([2]; 5-HT2B BRET EC50 (nM), Table 2, at least three replicate trials) was 62.3 nM and 96.2 nM. For the same compound, the EC50 ([2]; 5-HT2B EC50, nM, Table 3 panel) was 64.2 nM, the “5-HT2B BRET Eff %” value ([2]; Table 2) was 53% and 52% and the “5-HT2B Eff, %” value ([2]; Table 3 panel) was 50%. For the same compound, the “Predicted hepatic CL” value [3] was less than 54.16 mL/min/kg, the hepatocyte CLint [4] was less than 614 µL/min/1e6 cells and the half-life [4] was greater than 2.26 min. The CLint scaled [4] was less than 2870 mL/min/kg, the Kp ([5]; read-out: Brain/plasma Ratio) was 9.55 and the clearance ([5]; plasma) was 37.9 mL/min/kg. The half-life ([5]; plasma) was 117 min, the Vd ([5]; plasma) was 6.39 L/kg and the “Predicted hepatic CL” value [6] was 42.50 mL/min/kg. It also gave a hepatocyte CLint [7] of 467 µL/min/1e6 cells, a half-life [7] of 2.97 min and a CLint scaled [7] of 1680 mL/min/kg. For the same compound, the “5-HT1D EC50, nM” value [8] was “Not active”, the “Predicted hepatic CL” value [11] was 18.03 mL/min/kg and the hepatocyte CLint [12] was 54.8 µL/min/1e6 cells. It also gave a half-life [12] of 25.3 min, a CLint scaled [12] of 140 mL/min/kg and an EC50 [14] of 8090 nM. For the same compound, the “5-HT1F Eff, %” value ([14]; Table 3) was 69% and the “5-HT4 EC50, nM” value [15] was “Not active”.
